Assay results published in patent US20050222218A1, “Screening method and compounds for treating friedreich ataxia” (priority 2002, published 2005).
“Also recorded” adds a separate entry of the source. Where two headings read alike, the source gives them in different places.

Experiments:
Assay type in all cases: cell-based, human
FRDA fibroblasts [1] = assay: Rescue of FRDA fibroblasts from BSO-induced cell death (CalceinAM/ethidium homodimer cell viability)
Method: Friedreich Ataxia primary culture fibroblast cell lines F1 and control fibroblast line C1 were provided by the Insel-Spital Bern (Switzerland), FRDA line F3 was provided by Hopital Necker, Paris (France), FRDA lines F2 and control lines C2 and C3 were obtained from Coriell Cell Repositories (Camden, N.J.; catalog numbers GM04078, GM08402 and GM08399 respectively). Cells were grown in a humidified atmosphere supplemented with 5% CO2. For experiments, the cells were trypsinized and resuspended at a density of 40000 cells/ml in growth medium consisting of 25% (v/v) M199 EBS and 64% (v/v) MEM EBS without phenol red (Bioconcept, Allschwil, Switzerland) supplemented with 10% (v/v) fetal calf serum (PAA Laboratories, Linz, Austria), 100 U/ml penicillin, 100 μg/ml streptomycin (PAA Laboratories, Linz, Austria), 10 μg/ml insulin (Sigma, Buchs, Switzerland), 10 ng/ml EGF (Sigma, Buchs, Switzerland) and 10 ng/ml bFGF (PreproTech, Rocky Hill, N.J.) and 2 mM glutamine (Sigma, Buchs, Switzerland).
The cells were seeded in 96-well plates at a density of 4000 cells/well. They were incubated in the presence of various concentrations of L-buthionine-(S,R)-sulfoximine (BSO), an inhibitor of γ-glutamyl cysteine synthase (EC: 6.3.2.2), the rate limiting enzyme in the biosynthesis of glutathione. Cell viability was measured when the first signs of toxicity appeared in the controls (typically after 12 to 48 h). The cells were stained for 60 min at room temperature in PBS with 1.2 μM CalceinAM and 4 μM Ethidium homodimer (Live/Dead assay, Molecular Probes, Eugene, Oreg.). The plates were washed twice with PBS and fluorescence intensity was measured with a Gemini Spectramax XS spectrofluorimeter (Molecular Devices, Sunnyvale, Calif.) using excitation and emission wavelengths of 485 nm and 525 nm respectively. Live cells imaging was performed with a Zeiss Axiovert 135M fluorescence microscope equipped with a cooled CCD camera (Sensicam, PCO Computer Optics, Kelheim, FRG). Image acquisition was performed with the ImagePro Plus software (Media Cybermetics, Silver Spring, Md.).
[…] Cell viability was measured as described in Example 2.
Cell viability was measured after a further 48 hours incubation as described in Example 2. EC50 values were deduced from the dose-response curves. The natural CoQ10 was not active in this assay (Table 1). However, a possible bioavailability problem with this molecule due to its 50 carbon atom side chain can not be ruled out. CoQ1 had EC50 values similar to Idebenone (0.2 μM). CoQ2 performed better than Idebenone, with an EC50 value of 30 nM. […] Decylubiquinone was almost as effective as CoQ2, with an EC50 of 40 nM.
FRDA cells were incubated with increasing concentrations of sodium selenite (prepared as a stock solution 5 mM in PBS) for 24 hours, then subjected to BSO stress. Cell viability was measured as described in Example 2.
Based on the previous results, the hypothesis whether small-molecules GPX mimetics could rescue the cell death phenotype of FRDA cells when exposed to BSO was tested. FRDA cells were incubated for 24 hours in the presence of Ebselen, a GPX mimetic (Muller, A., et al., “A novel biologically active seleno-organic compound—I. Glutathione peroxidase-like activity in vitro and antioxidant capacity of PZ 51 (Ebselen)”, Biochem Pharmacol, 33, 3235-9., (1984)) and then subjected to 1 mM BSO treatment.
FRDA cells were incubated in the presence of a number of GPX mimetics. Two classes of molecules (FIG. 7) were evaluated: monoselenides (compound number 4, 5 and 8) and diselenides (compound number 1-3, 6, 7, 9-16). Dose-response curves were obtained for each molecule. From the dose-response curves not only the EC50, but also the concentration range for which a molecule produced at least 50% cell survival upon BSO challenge was calculated (FIG. 8).
GPX mimetics were tested as described in Example 3. Dose-response curves were obtained for all compounds tested. […]

[2] = tested on: GPX enzymatic activity in FRDA cells; assay: Glutathione peroxidase activity in FRDA cell extracts
Method: (§1) Control and FRDA cells (5×10^5 cells grown in 10 cm dishes) were preincubated with sodium selenite (500 nM) for 24 hours and then subjected to 1 mM BSO treatment for 24 hours. Total cell extracts were used to measure glutathione content, glutathione peroxidase activity and glutathione-S-transferase activity.
(§2) To determine the glutathione peroxidase activity, cell extracts obtained for total GSH measurements were adjusted with PBS to a final protein concentration of 1.85 mg/ml. Enzymatic activity was measured with the Glutathione peroxidase cellular activity assay kit (Sigma, St Louis, Mo.) essentially according to the instructions of the manufacturer: Enzymatic activity was measured with 40 μg total protein extract in a final reaction volume of 100 μl. NADPH consumption was measured by the decrease in NADPH fluorescence at 445 nm. All measurements were done in triplicate in 96-well plates with a Gemini spectrofluorimeter using excitation and emission wavelengths of 340 nm and 445 nm respectively. Glutathione-S-transferase activity was determined in the same way as the glutathione content, except that the assay was performed in the presence of an excess of glutathione (1 mM) instead of an excess of exogenous glutathione-S-transferase. Because the BSO treatment is known to deplete cellular (GSH) levels, intracellular GSH concentrations were measured first. Any difference in basal glutathione levels between the two cell lines that were tested were not observed (FIG. 4, panel A). […] (FIG. 4, panel A). From this, it was concluded that the GSH levels per se are not responsible for the observed difference in phenotype between the two cell types. […] Therefore, GPX enzymatic activity in extracts from both cell types was compared. This measurement is based on the recycling of oxidized glutathione generated by GPX, using tert-butyl hydroperoxide as substrate. Oxidized glutathione is reduced by an excess exogenous glutathione reductase that will consume a corresponding amount of NADPH that is then measured by fluorescence. […]

FRDA fibroblasts [3] = assay: Rescue of FRDA fibroblasts from BSO-induced cell death (CalceinAM/ethidium homodimer cell viability); conditions: no preincubation
[4] = tested on: GST activity in FRDA cells; assay: Glutathione-S-transferase activity in FRDA cell extracts; conditions: 500 nM sodium selenite
Method: as §1
(§3) To determine the glutathione peroxidase activity, cell extracts obtained for total GSH measurements were adjusted with PBS to a final protein concentration of 1.85 mg/ml. Enzymatic activity was measured with the Glutathione peroxidase cellular activity assay kit (Sigma, St Louis, Mo.) essentially according to the instructions of the manufacturer: Enzymatic activity was measured with 40 μg total protein extract in a final reaction volume of 100 μl. NADPH consumption was measured by the decrease in NADPH fluorescence at 445 nm. […] Glutathione-S-transferase activity was determined in the same way as the glutathione content, except that the assay was performed in the presence of an excess of glutathione (1 mM) instead of an excess of exogenous glutathione-S-transferase. Because the BSO treatment is known to deplete cellular (GSH) levels, intracellular GSH concentrations were measured first. […] Oxidized glutathione is reduced by an excess exogenous glutathione reductase that will consume a corresponding amount of NADPH that is then measured by fluorescence. […]

[5] = tested on: GST activity in control cells; assay: Glutathione-S-transferase activity in control cell extracts; conditions: 500 nM sodium selenite or 1 mM BSO
Method: as §1, §3

[6] = tested on: GPX enzymatic activity in control cells; assay: Glutathione peroxidase activity in control cell extracts
Method: as §1, §2

[7] = tested on: intracellular GSH in control and FRDA cells; assay: Intracellular glutathione content (monochlorobimane method)
Method: as §1
To determine the glutathione content, cells were trypsinized, washed twice with PBS and snap frozen in 100 μl PBS. Cells were lysed in PBS supplemented with a protease inhibitor cocktail (Complete, Roche Diagnostics, Rotkreuz, Switzerland) by 4 freeze/thaw cycles. Total protein content was measured with the BioRad protein assay (BioRad, Hercules, Calif.) using calibrated bovine serum albumin solutions as standards (Pierce). Reduced glutathione content was measured essentially as described (Kamencic, H., et al., Monochlorobimane fluorometric method to measure tissue glutathione, Anal Biochem, 286, 35-7., (2000)) with a final monochlorobimane (mClB) (Molecular Probes, Eugene, Oreg.) concentration of 25 μM. The GSH-mClB adduct fluorescence was measured with a Gemini spectrofluorimeter using excitation and emission wavelengths of 380 nm and 470 nm respectively. Known amounts of reduced glutathione were used as standards.

FRDA fibroblasts [8] = assay: BSO sensitivity of FRDA fibroblasts (cell viability)
Method: (§4) Friedreich Ataxia primary culture fibroblast cell lines F1 and control fibroblast line C1 were provided by the Insel-Spital Bern (Switzerland), FRDA line F3 was provided by Hopital Necker, Paris (France), FRDA lines F2 and control lines C2 and C3 were obtained from Coriell Cell Repositories (Camden, N.J.; catalog numbers GM04078, GM08402 and GM08399 respectively). Cells were grown in a humidified atmosphere supplemented with 5% CO2. […]
(§5) The cells were seeded in 96-well plates at a density of 4000 cells/well. […] Cell viability was measured when the first signs of toxicity appeared in the controls (typically after 12 to 48 h). […] The plates were washed twice with PBS and fluorescence intensity was measured with a Gemini Spectramax XS spectrofluorimeter (Molecular Devices, Sunnyvale, Calif.) using excitation and emission wavelengths of 485 nm and 525 nm respectively. Live cells imaging was performed with a Zeiss Axiovert 135M fluorescence microscope equipped with a cooled CCD camera (Sensicam, PCO Computer Optics, Kelheim, FRG). […]

control fibroblasts = assay: BSO sensitivity of control fibroblasts (cell viability)
Method: as §4, §5

[9] = 500 nM sodium selenite, then 1 mM BSO
[10] = Homo sapiens, Fibroblast, Table 1, 24 h preincubation, 1 mM BSO, viability after further 48 h, read-out: EC50
[11] = FRDA cells preincubated 24 h with compound, then 1 mM BSO, read-out: EC50 value, prevention of cell death

Cc1c(C)c2c(c(C)c1O)CCC(C)(C(=O)O)O2 (stereo not shown) [Trolox, 6-hydroxy-2,5,7,8-tetramethylchroman-2-carboxylic acid]
viability at 25 µM (FRDA fibroblasts [1]; Homo sapiens, Fibroblast, read-out: cell viability preserved): 60%
cell viability (FRDA fibroblasts [1]; concentrations higher than 25 μM, 1 mM BSO): 55%

O=[Se]([O-])[O-].[Na+].[Na+] [sodium selenite]
concentration that protected the cells fully (FRDA fibroblasts [1]; 24 h preincubation, then BSO): 200 nM
effect of concentrations higher than 200 nM (FRDA fibroblasts [1]; 24 h preincubation, then BSO): enhanced cell growth
increase in basal GPX enzyme activity ([2]; 500 nM sodium selenite, no BSO): 50%
factor of increase in GPX activity [2, 9]: 3
protection when added at the same time as BSO (FRDA fibroblasts [3]): did not protect
effect on GST activity [4]: slightly reduces
effect on GST activity [5]: neither modulated
effect on basal GPX activity ([6]; 500 nM sodium selenite, no BSO): not enhanced
effect on GPX activity under BSO treatment [6, 9]: prevented the enzyme activity loss
effect of selenium preincubation on BSO glutathione depletion ([7]; 500 nM sodium selenite 24 h, then 1 mM BSO 24 h): did not prevent the glutathione depletion

COC1=C(OC)C(=O)C(C/C=C(\C)CCC=C(C)C)=C(C)C1=O [CoQ2]
EC50 (FRDA fibroblasts [1]; FRDA cells preincubated 24 h with compound, then 1 mM BSO, viability after further 48 h, read-out: EC50 value, rescue of FRDA cell death): 30 nM

CCCCCCCCCCC1=C(C)C(=O)C(OC)=C(OC)C1=O [Decylubiquinone, 2,3-Dimethoxy-5-methyl-6-decyl-1,4-benzoquinone]
working range (concentrations giving at least 50% cell viability) (FRDA fibroblasts [1]; 1 mM BSO): up to 3 orders of magnitude
EC50 (FRDA fibroblasts [1]; Homo sapiens, Fibroblast, FRDA cells preincubated 24 h with compound, then 1 mM BSO, viability after further 48 h, read-out: EC50 value, rescue of FRDA cell death): 40 nM
EC50 (FRDA fibroblasts [1]; [10]): 40 nM

COC1=C(OC)C(=O)C(C)=CC1=O [CoQ0]
activity in rescuing FRDA cells from BSO (in words) (FRDA fibroblasts [1]; 24 h preincubation, 1 mM BSO): inactive; also recorded: not active

Vitamin E
EC50 (FRDA fibroblasts [1]; [11]): 700 nM

COC1=C(OC)C(=O)C(CCCCCCCCCCO)=C(C)C1=O [Idebenone, 2,3-dimethoxy-5-methyl-6(10-hydroxydecyl)-1,4-benzoquinone]
rescue effect at the highest concentration tested (FRDA fibroblasts [1]; 50 μM compound, 1 mM BSO): slightly diminished
appearance of treated cells upon microscopic examination (FRDA fibroblasts [1]; 1 mM BSO + 5 μM Idebenone, CalceinAM/ethidium homodimer): undistinguishable from untreated cells
concentration at which full rescue was observed (FRDA fibroblasts [1]; 24 h preincubation, 1 mM BSO): 2 µM
EC50 (FRDA fibroblasts [1]; Homo sapiens, Fibroblast, FRDA cells preincubated 24 h with compound, then 1 mM BSO, read-out: EC50 value, prevention of cell death): 500 nM
EC50 (FRDA fibroblasts [1]; [10]): 500 nM

COC1=C(OC)C(=O)C(C/C=C(\C)CC/C=C(\C)CC/C=C(\C)CC/C=C(\C)CC/C=C(\C)CC/C=C(\C)CC/C=C(\C)CC/C=C(\C)CC/C=C(\C)CCC=C(C)C)=C(C)C1=O [CoQ10]
activity in rescuing FRDA cells from BSO (in words) (FRDA fibroblasts [1]; 24 h preincubation, 1 mM BSO): not active; also recorded: did not reach the 50% cell viability rescue
EC50 (FRDA fibroblasts [1]; Table 1, 24 h preincubation, 1 mM BSO, viability after further 48 h, read-out: EC50): > 50000 nM

CCCCS(=N)(=O)CCC(N)C(=O)O [BSO, L-buthionine-(S,R)-sulfoximine]
viability compared to untreated controls (FRDA fibroblasts [8]; 1 mM BSO, FRDA cell lines F1-F3): less than 10%
BSO concentration giving marked reduction in cell titer (FRDA fibroblasts [8]; overnight exposure): 4 µM
effect of BSO on GPX enzyme activity ([2]; 1 mM BSO 24 h, no selenium): small decrease in enzyme activity
viability compared to untreated controls (average) (control fibroblasts; 1 mM BSO, control cell lines C1-C3): 60%
BSO concentration giving slight decrease in cell density (control fibroblasts; overnight exposure): 100 µM
effect on GST activity [5]: neither modulated
effect of BSO on GPX enzyme activity ([6]; 1 mM BSO 24 h, no selenium): small decrease in enzyme activity
effect of BSO on glutathione levels ([7]; 1 mM BSO 24 h, both cell types): reduction in glutathione levels

CoQ1
EC50 (FRDA fibroblasts [1]; [11]): 200 nM
